Reference: US11613556B2, “Oxysterols and methods of use thereof” (Sage Therapeutics, Inc., priority 2016, dated 2023)
pEC50: −log10 of the molar value. Read-outs that look alike come from different tables or passages of the source.

Assays:
Format in all cases: cell-based
[1] = target: GluN1/GluN2A glutamate receptors (human GRIN1/GRIN2A) expressed in HEK293 cells (Homo sapiens (Human), UniProt Q05586+Q12879); test: Whole-cell patch clamp of mammalian cells (Ionworks Barracuda), positive allosteric modulation, GluN1/GluN2A; conditions: for Emax: read-out: GluN2A PCA EMax (%)
Summary of the method: (§1)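 Ionworks Barracuda perforated-patch recordings, holding −70 mV, −40 mV during application; CsCl/CsF intracellular pH 7.2, HB-PS extracellular pH 7.4 with 5 mM CaCl2. 5 min pre-application of test article alone, then co-application with EC20 L-glutamate plus 30 μM glycine; potentiation read as peak current amplitude.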

[2] = target: GluN2B glutamate receptors expressed in mammalian cells (Homo sapiens (Human), UniProt Q05586+Q13224); test: Whole-cell patch clamp of mammalian cells (Ionworks Barracuda), positive allosteric modulation, GluN2B; conditions: for Emax: read-out: GluN2B PCA EMax (%)
Summary of the method: as §1

[3] = target: glutamate-activated channels of the GRIN1/2A subtype stably transfected in HEK 293 cells (Homo sapiens (Human), UniProt Q05586+Q12879); test: Automated patch-clamp system (QPatch HTX), percent potentiation at 1 μM; conditions: HEK293, 1 μM test compound, 300 μM NMDA with 8 μM glycine, HEK 293 GRIN1/2A, read-out: GluN2A PCA % potentiation at 1 μM
Summary of the method: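 Tetracycline-induced HEK 293 cells stably expressing human GRIN1/2A were whole-cell recorded on QPatch HTX in Mg-free bath solution at pH 7.4. Compound at 1.0 μM (0.1% DMSO) was co-applied with submaximal 300 μM NMDA plus 8 μM glycine, and percent potentiation was recorded.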

[4] = peak current amplitude, co-application with EC20 L-glutamate and 30 μM glycine, HEK293, read-out: GluN2A PCA EC50
[5] = peak current amplitude, co-application with EC20 L-glutamate and 30 μM glycine, HEK293
[6] = peak current amplitude, co-application with EC20 L-glutamate and 30 μM glycine, read-out: GluN2B PCA EC50
[7] = peak current amplitude, co-application with EC20 L-glutamate and 30 μM glycine

Sequence of GluN2B glutamate receptors expressed in mammalian cells (Q13224 27-1484, other chains not shown): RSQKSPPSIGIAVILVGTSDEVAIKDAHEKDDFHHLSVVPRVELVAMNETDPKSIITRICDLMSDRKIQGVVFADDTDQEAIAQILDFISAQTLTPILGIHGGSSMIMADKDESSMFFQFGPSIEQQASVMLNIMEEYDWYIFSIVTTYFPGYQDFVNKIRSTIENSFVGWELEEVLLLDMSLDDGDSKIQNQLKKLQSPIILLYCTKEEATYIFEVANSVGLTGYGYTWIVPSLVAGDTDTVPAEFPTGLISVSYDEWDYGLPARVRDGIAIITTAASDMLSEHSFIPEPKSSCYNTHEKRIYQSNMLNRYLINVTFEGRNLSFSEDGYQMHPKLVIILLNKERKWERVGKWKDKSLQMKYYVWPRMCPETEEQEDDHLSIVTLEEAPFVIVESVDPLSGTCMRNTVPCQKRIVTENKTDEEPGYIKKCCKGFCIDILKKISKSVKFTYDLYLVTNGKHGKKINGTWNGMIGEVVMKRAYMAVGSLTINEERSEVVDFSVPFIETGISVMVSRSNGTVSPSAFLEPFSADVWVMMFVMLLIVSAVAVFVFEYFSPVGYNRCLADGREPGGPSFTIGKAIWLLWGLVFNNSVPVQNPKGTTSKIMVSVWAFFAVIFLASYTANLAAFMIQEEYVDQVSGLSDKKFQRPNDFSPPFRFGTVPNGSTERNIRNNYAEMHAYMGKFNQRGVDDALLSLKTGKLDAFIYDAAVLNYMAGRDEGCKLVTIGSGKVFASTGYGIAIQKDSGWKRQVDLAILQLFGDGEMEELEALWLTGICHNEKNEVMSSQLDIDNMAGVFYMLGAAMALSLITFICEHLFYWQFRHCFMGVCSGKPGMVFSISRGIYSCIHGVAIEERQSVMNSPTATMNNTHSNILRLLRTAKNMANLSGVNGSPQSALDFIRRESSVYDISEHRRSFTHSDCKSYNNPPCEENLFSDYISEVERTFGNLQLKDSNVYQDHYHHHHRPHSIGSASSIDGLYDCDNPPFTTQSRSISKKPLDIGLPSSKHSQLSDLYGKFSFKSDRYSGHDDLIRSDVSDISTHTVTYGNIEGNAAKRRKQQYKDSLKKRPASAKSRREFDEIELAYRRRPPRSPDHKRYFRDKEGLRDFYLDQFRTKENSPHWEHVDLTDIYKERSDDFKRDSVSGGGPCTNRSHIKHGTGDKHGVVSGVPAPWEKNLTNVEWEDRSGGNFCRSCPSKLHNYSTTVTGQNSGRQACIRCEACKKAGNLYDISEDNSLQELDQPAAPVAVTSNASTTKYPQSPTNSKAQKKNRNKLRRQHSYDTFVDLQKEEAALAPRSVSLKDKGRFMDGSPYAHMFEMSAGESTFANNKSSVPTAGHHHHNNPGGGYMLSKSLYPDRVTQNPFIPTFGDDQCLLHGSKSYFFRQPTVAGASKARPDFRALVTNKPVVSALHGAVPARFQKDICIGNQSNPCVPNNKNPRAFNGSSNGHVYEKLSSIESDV
Sequence of GluN1/GluN2A glutamate receptors (human GRIN1/GRIN2A) expressed in HEK293 cells (Q12879 whole entry, looked up, other chains not shown): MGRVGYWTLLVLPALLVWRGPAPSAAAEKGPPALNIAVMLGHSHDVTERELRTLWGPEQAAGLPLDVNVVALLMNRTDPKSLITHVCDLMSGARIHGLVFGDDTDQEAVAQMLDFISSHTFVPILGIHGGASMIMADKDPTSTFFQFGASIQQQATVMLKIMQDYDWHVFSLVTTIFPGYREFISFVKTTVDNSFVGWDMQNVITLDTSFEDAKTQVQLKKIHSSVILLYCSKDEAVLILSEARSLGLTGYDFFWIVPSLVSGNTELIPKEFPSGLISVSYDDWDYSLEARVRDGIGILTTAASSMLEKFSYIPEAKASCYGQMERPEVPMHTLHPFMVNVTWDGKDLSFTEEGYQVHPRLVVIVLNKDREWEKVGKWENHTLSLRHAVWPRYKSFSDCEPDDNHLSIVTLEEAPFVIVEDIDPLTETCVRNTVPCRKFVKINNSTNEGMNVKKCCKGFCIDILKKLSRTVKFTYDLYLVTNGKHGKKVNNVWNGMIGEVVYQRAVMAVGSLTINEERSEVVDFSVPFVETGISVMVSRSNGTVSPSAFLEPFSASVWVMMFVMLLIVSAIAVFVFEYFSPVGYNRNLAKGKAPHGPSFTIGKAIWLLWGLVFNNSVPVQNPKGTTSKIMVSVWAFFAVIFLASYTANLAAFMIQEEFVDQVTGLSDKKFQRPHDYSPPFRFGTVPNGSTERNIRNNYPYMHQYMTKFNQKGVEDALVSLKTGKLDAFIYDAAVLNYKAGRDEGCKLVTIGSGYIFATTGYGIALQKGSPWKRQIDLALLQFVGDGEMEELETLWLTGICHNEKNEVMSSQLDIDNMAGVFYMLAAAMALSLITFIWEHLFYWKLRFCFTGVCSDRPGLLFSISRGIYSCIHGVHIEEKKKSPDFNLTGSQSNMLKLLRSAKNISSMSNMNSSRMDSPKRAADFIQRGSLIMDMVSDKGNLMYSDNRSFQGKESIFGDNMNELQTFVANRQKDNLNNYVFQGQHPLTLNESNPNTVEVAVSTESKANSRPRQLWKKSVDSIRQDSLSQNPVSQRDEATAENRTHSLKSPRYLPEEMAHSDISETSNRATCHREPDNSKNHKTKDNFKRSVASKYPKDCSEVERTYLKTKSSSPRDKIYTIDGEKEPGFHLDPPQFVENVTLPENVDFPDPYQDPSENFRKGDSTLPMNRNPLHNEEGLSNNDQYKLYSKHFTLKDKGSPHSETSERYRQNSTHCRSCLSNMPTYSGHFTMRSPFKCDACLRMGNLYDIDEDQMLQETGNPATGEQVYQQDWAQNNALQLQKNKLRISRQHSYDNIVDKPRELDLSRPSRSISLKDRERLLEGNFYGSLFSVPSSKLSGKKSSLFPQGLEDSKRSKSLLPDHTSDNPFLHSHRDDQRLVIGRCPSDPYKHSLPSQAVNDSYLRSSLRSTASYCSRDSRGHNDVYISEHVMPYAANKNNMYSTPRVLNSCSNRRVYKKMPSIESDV
Sequence of glutamate-activated channels of the GRIN1/2A subtype stably transfected in HEK 293 cells (Q12879 whole entry, looked up, other chains not shown): as above

| SMILES | pEC50 [1, 4] | Emax [1, 5] [%] | pEC50 [2] | Emax [2] [%] | activation at 1 µM [3] [%] | pEC50 [1] | pEC50 [2, 6] | Emax [2, 7] [%] |
| --- | --- | --- | --- | --- | --- | --- | --- | --- |
| CC[C@]1(O)CC[C@@]2(C)[C@@H](CC[C@@H]3[C@@H]2CC[C@]2(C)[C@@H]([C@H](C)[C@H](O)CC4CCC(C)(C)CC4)CC[C@@H]32)C1 [Compound 20, (3S,5S,8R,9S,10S,13S,14S,17R)-17-((2S,3R)-4-(4,4-dimethylcyclohexyl)-3-hydroxybutan-2-yl)-3-ethyl-10,13-dimethylhexadecahydro-1H-cyclopenta[a]phenanthren-3-ol] | < 6.00 | < 100 | < 6.00 | < 100 | -40 to -10 |  |  |  |
| CCC[C@H](O)[C@@H](C)[C@H]1CC[C@H]2[C@@H]3CC[C@@H]4C[C@](O)(CC)CC[C@]4(C)[C@H]3CC[C@]12C [Compound 23, (3S,5R,8R,9S,10S,13S,14S,17R)-3-ethyl-17-((2S,3S)-3-hydroxyhexan-2-yl)-10,13-dimethylhexadecahydro-1H-cyclopenta[a]phenanthren-3-ol] |  | < 100 |  |  | -40 to -10 | < 6.00 | < 6.00 | 100 to 500 |
| CC[C@]1(O)CC[C@@]2(C)[C@@H](CC[C@@H]3[C@@H]2CC[C@]2(C)[C@@H]([C@H](C)[C@@H](O)Cc4ccccc4)CC[C@@H]32)C1 [Compound 32, (3S,5S,8R,9S,10S,13S,14S,17R)-3-ethyl-17-((2S,3S)-3-hydroxy-4-phenylbutan-2-yl)-10,13-dimethylhexadecahydro-1H-cyclopenta[a]phenanthren-3-ol] |  | < 100 |  |  | -10 to 10 | < 6.00 | < 6.00 | < 100 |
| CCC[C@H](O)[C@@H](C)[C@H]1CC[C@H]2[C@@H]3CC[C@H]4C[C@](O)(CC)CC[C@]4(C)[C@H]3CC[C@]12C [Compound 38, (3S,5S,8R,9S,10S,13S,14S,17R)-3-ethyl-17-((2S,3S)-3-hydroxyhexan-2-yl)-10,13-dimethylhexadecahydro-1H-cyclopenta[a]phenanthren-3-ol] |  | < 100 |  |  | -40 to -10 | < 6.00 | < 6.00 | < 100 |
| CC[C@]1(O)CC[C@H]2[C@@H](CC[C@@H]3[C@@H]2CC[C@]2(C)[C@@H]([C@H](C)[C@H](O)CCC(C)C)CC[C@@H]32)C1 [Compound 40, (3S,5S,8R,9R,10S,13S,14S,17R)-3-ethyl-17-((2S,3R)-3-hydroxy-6-methylheptan-2-yl)-13-methylhexadecahydro-1H-cyclopenta[a]phenanthren-3-ol] |  | < 100 |  |  | -10 to 10 | < 6.00 | < 6.00 | 100 to 500 |
| CC[C@]1(O)CC[C@@]2(C)C(=CC[C@H]3[C@@H]4CC[C@H]([C@H](C)[C@H](O)CC5CCCC5)[C@@]4(C)CC[C@@H]32)C1 [Compound 46, (3S,8S,9S,10R,13S,14S,17R)-17-((2S,3R)-4-cyclopentyl-3-hydroxybutan-2-yl)-3-ethyl-10,13-dimethyl-2,3,4,7,8,9,10,11,12,13,14,15,16,17-tetradecahydro-1H-cyclopenta[a]phenanthren-3-ol] |  | < 100 |  |  | -40 to -10 | < 6.00 | < 6.00 | < 100 |
| CC[C@]1(O)CC[C@@]2(C)[C@H](CC[C@@H]3[C@@H]2CC[C@]2(C)[C@@H]([C@H](C)[C@@H](O)CC4CCC(C)(C)CC4)CC[C@@H]32)C1 [Compound 59, (3S,5R,8R,9S,10S,13S,14S,17R)-17-((2S,3S)-4-(4,4-dimethylcyclohexyl)-3-hydroxybutan-2-yl)-3-ethyl-10,13-dimethylhexadecahydro-1H-cyclopenta[a]phenanthren-3-ol] | < 6.00 | < 100 | < 6.00 | < 100 | < -40 |  |  |  |
| CC[C@]1(O)CC[C@@]2(C)[C@H](CC[C@@H]3[C@@H]2CC[C@]2(C)[C@@H]([C@H](C)[C@H](O)CC4CCCC4)CC[C@@H]32)C1 [Compound 67, (3S,5R,8R,9S,10S,13S,14S,17R)-17-((2S,3R)-4-cyclopentyl-3-hydroxybutan-2-yl)-3-ethyl-10,13-dimethylhexadecahydro-1H-cyclopenta[a]phenanthren-3-ol] |  | < 100 |  |  | -10 to 10 | < 6.00 | < 6.00 | < 100 |
| CC[C@]1(O)CC[C@@]2(C)C(=CC[C@H]3[C@@H]4CC[C@H]([C@H](C)[C@@H](O)CCC5CC5)[C@@]4(C)CC[C@@H]32)C1 [Compound 69, (3S,8S,9S,10R,13S,14S,17R)-17-((2S,3S)-5-cyclopropyl-3-hydroxypentan-2-yl)-3-ethyl-10,13-dimethyl-2,3,4,7,8,9,10,11,12,13,14,15,16,17-tetradecahydro-1H-cyclopenta[a]phenanthren-3-ol] |  | < 100 |  |  | -10 to 10 | < 6.00 | < 6.00 | < 100 |
| CCC[C@H](O)[C@@H](C)[C@H]1CC[C@H]2[C@@H]3CC=C4C[C@](O)(CC)CC[C@]4(C)[C@H]3CC[C@]12C [Compound 72, (3S,8S,9S,10R,13S,14S,17R)-3-ethyl-17-((2S,3S)-3-hydroxyhexan-2-yl)-10,13-dimethyl-2,3,4,7,8,9,10,11,12,13,14,15,16,17-tetradecahydro-1H-cyclopenta[a]phenanthren-3-ol] |  | < 100 |  |  | -40 to -10 | < 6.00 | < 6.00 | < 100 |
| CC[C@]1(O)CC[C@@]2(C)[C@@H](CC[C@@H]3[C@@H]2CC[C@]2(C)[C@@H]([C@H](C)[C@H](O)CC4CCCC4)CC[C@@H]32)C1 [Compound 84, (3S,5S,8R,9S,10S,13S,14S,17R)-17-((2S,3R)-4-cyclopentyl-3-hydroxybutan-2-yl)-3-ethyl-10,13-dimethylhexadecahydro-1H-cyclopenta[a]phenanthren-3-ol] |  | < 100 |  |  | -10 to 10 | < 6.00 | < 6.00 | < 100 |
| CC[C@]1(O)CC[C@@]2(C)[C@H](CC[C@@H]3[C@@H]2CC[C@]2(C)[C@@H]([C@H](C)[C@H](O)CC4CCC(C)(C)CC4)CC[C@@H]32)C1 [Compound 87, (3S,5R,8R,9S,10S,13S,14S,17R)-17-((2S,3R)-4-(4,4-dimethylcyclohexyl)-3-hydroxybutan-2-yl)-3-ethyl-10,13-dimethylhexadecahydro-1H-cyclopenta[a]phenanthren-3-ol] | < 6.00 | < 100 | < 6.00 | < 100 | -10 to 10 |  |  |  |
| CC[C@]1(O)CC[C@@]2(C)[C@H](CC[C@@H]3[C@@H]2CC[C@]2(C)[C@@H]([C@H](C)[C@@H](O)CC4CCCC4)CC[C@@H]32)C1 [Compound 94, (3S,5R,8R,9S,10S,13S,14S,17R)-17-((2S,3S)-4-cyclopentyl-3-hydroxybutan-2-yl)-3-ethyl-10,13-dimethylhexadecahydro-1H-cyclopenta[a]phenanthren-3-ol] |  | < 100 |  |  | -40 to -10 | < 6.00 | < 6.00 | < 100 |
| CC[C@]1(O)CC[C@@]2(C)[C@H](CC[C@@H]3[C@@H]2CC[C@]2(C)[C@@H]([C@H](C)[C@H](O)CCC(C)C)CC[C@@H]32)C1 [Compound 96, (3S,5R,8R,9S,10S,13S,14S,17R)-3-ethyl-17-((2S,3R)-3-hydroxy-6-methylheptan-2-yl)-10,13-dimethylhexadecahydro-1H-cyclopenta[a]phenanthren-3-ol] | 6.00 to 7.00 | < 100 | < 6.00 | < 100 | -10 to 10 |  |  |  |
| CC[C@]1(O)CC[C@@]2(C)[C@@H](CC[C@@H]3[C@@H]2CC[C@]2(C)[C@@H]([C@H](C)[C@@H](O)CC4CCCC4)CC[C@@H]32)C1 [Compound 98, (3S,5S,8R,9S,10S,13S,14S,17R)-17-((2S,3S)-4-cyclopentyl-3-hydroxybutan-2-yl)-3-ethyl-10,13-dimethylhexadecahydro-1H-cyclopenta[a]phenanthren-3-ol] |  | < 100 |  |  | -40 to -10 | < 6.00 | < 6.00 | < 100 |
| CC[C@]1(O)CC[C@@]2(C)C(=CC[C@H]3[C@@H]4CC[C@H]([C@H](C)[C@@H](O)CC5CCCC5)[C@@]4(C)CC[C@@H]32)C1 [Compound 100, (3S,8S,9S,10R,13S,14S,17R)-17-((2S,3S)-4-cyclopentyl-3-hydroxybutan-2-yl)-3-ethyl-10,13-dimethyl-2,3,4,7,8,9,10,11,12,13,14,15,16,17-tetradecahydro-1H-cyclopenta[a]phenanthren-3-ol] |  | < 100 |  |  | -40 to -10 | < 6.00 | < 6.00 | < 100 |
